Data taken from the supplement of paper PMC8920030.

How the values were obtained:
Conditions in all cases: growth mode: biofilm, 24 h; exposure time: 24 h
colistin [1] = compound: T1, CCC(C)CCCC(=O)N[C@@H](CCN)C(=O)N[C@H](C(=O)N[C@@H](CCN)C(=O)N[C@H]1CCNC(=O)[C@H]([C@@H](C)O)NC(=O)[C@H](CCN)NC(=O)[C@H](CCN)NC(=O)[C@H](CC(C)C)NC(=O)[C@@H](CC(C)C)NC(=O)[C@H](CCN)NC1=O)[C@@H](C)O [colistin]; test: minimum concentration of killing, 1-log CFU reduction of biofilm (MCK90); higher = more biofilm tolerance
Method: (§1)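 Clinical P. aeruginosa isolates were grown as static biofilms for 24 h at 37 °C in LB in half-area 96-well plates, then exposed for 24 h to colistin at 1, 4, 16, 64, 256 or […]. Surviving CFU were counted by spotting serial dilutions. MCK is the lowest tested concentration giving the stated log reduction in CFU versus an untreated control; '>1024' means the reduction was not reached at the top dose, and 1 is the lowest dose tested (≤1).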

colistin [2] = compound: T1, colistin; test: minimum concentration of killing, 2-log CFU reduction of biofilm (MCK99); higher = more biofilm tolerance
Method: as §1

colistin [3] = compound: T1, colistin; test: minimum concentration of killing, 4-log CFU reduction of biofilm (MCK99.99); higher = more biofilm tolerance
Method: as §1

tobramycin [4] = compound: T2, NC[C@H]1O[C@H](O[C@H]2[C@H](O)[C@@H](O[C@H]3O[C@H](CO)[C@@H](O)[C@H](N)[C@H]3O)[C@H](N)C[C@@H]2N)[C@H](N)C[C@@H]1O [tobramycin]; test: as above
Method: as §1, with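 “tobramycin” for “colistin”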

tobramycin [5] = compound: T2, tobramycin; test: minimum concentration of killing, 1-log CFU reduction of biofilm (MCK90); higher = more biofilm tolerance
Method: as §1, with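 “tobramycin” for “colistin”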

colistin [6] = compound: T1, colistin; test: minimum concentration eradicating biofilm below detection limit (MCK-E); higher = more biofilm tolerance
Method: as §1

tobramycin [7] = compound: T2, tobramycin; test: as above
Method: as §1, with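 “tobramycin” for “colistin”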

tobramycin [8] = compound: T2, tobramycin; test: minimum concentration of killing, 2-log CFU reduction of biofilm (MCK99); higher = more biofilm tolerance
Method: as §1, with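 “tobramycin” for “colistin”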

## Pseudomonas aeruginosa clinical isolate F2020
Colistin [1]
  minimum concentration of killing: 16 µg/mL
Colistin [2]
  minimum concentration of killing: 64 µg/mL
Colistin [3]
  minimum concentration of killing: 64 µg/mL
Tobramycin [4]
  minimum concentration of killing: 256 µg/mL
Tobramycin [5]
  minimum concentration of killing: 16 µg/mL
Colistin [6]
  minimum concentration eradicating biofilm below detection limit: 256 µg/mL
Tobramycin [7]
  minimum concentration eradicating biofilm below detection limit: 1020 µg/mL
Tobramycin [8]
  minimum concentration of killing: 16 µg/mL
